Tests used:
UvrA = target: T1, UvrA (Escherichia coli, UniProt P0A698); experiment: NADH-linked ATPase assay, Hill fit; format: biochemical
T1 construct: recombinant, IPTG-induced, Ni-NTA purified; plasmid as in Bernacchia et al. 2023; homodimer

[1] = target: T2, UvrA-mNeonGreen (UvrA-mNG) (Escherichia coli, UniProt P0A698); experiment: C-trap optical tweezers, single-molecule DNA binding; format: biochemical; conditions: 20 μM Bemcentinib; lambda DNA at 50 pN; 1 mM ATP, 10 mM MgCl2, pH 7.5
T2 construct: C-terminal mNeonGreen reporter fusion; plasmid as in Bernacchia et al. 2023
T2 sequence (P0A698 whole entry, the tested form may be a part): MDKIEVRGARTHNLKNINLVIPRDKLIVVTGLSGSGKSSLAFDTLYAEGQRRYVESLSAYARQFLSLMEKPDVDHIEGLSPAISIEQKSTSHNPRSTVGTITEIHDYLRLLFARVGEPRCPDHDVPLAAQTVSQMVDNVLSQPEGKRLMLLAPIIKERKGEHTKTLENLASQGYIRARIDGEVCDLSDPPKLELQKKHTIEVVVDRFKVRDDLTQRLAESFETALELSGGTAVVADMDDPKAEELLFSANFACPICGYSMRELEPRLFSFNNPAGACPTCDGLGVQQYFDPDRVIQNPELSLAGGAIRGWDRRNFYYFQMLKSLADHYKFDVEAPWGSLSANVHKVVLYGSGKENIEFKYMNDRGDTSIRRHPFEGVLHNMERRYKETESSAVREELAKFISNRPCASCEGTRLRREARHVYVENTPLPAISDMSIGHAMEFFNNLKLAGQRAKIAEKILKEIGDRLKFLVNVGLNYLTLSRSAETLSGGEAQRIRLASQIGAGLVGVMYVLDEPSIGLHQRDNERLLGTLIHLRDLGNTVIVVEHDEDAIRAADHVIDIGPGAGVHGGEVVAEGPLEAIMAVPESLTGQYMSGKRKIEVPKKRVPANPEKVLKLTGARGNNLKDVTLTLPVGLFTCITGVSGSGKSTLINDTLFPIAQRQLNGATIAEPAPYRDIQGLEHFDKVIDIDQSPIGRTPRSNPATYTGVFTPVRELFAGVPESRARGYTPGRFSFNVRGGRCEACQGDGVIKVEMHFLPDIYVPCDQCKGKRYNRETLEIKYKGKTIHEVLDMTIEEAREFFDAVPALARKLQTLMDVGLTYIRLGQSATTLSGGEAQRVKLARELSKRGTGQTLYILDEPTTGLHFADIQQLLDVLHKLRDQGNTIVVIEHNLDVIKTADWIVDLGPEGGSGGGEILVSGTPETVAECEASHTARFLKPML

T1 sequence (P0A698 whole entry): as the sequence (P0A698 whole entry, the tested form may be a part) above

With `Nc1nc(Nc2ccc3c(c2)CC[C@@H](N2CCCC2)CC3)nn1-c1cc2c(nn1)-c1ccccc1CCC2` [Bemcentinib] the IC50 (UvrA) was 7.49 µM and the “% reduction in DNA binders per minute at 20 μM” value [1] was ~ 90%.
